The assay addresses OGG1 (Homo sapiens (Human), UniProt O15527). In words: In vitro OGG1 activity assay. The following applies: 800 pM OGG1 enzyme, 2 nM human APEX1, 10 nM 8-oxoA:C substrate. Format: biochemical. In outline: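 Fluorescence-release assay on a duplex oligonucleotide carrying an OGG1 substrate base beside a fluorophore, quenched from the complementary strand. Excess APEX1 cleaves the abasic site left by base excision, melting the duplex and unquenching the fluorophore. Compounds in DMSO were dispensed before enzyme and substrate, and fluorescein signal was read.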

Chain of OGG1 (O15527 whole entry): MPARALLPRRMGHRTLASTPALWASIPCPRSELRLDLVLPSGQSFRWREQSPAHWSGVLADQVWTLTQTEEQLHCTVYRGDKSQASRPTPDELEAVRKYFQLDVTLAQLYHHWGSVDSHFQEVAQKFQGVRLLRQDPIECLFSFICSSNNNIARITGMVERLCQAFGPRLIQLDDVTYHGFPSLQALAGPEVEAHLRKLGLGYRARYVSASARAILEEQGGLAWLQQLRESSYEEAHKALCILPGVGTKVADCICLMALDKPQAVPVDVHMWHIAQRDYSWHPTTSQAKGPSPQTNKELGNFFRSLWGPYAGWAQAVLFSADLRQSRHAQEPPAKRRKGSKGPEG

For orientation: IC50 means the concentration at which inhibition is half-maximal. Lower therefore signals greater potency in that assay. Take `COc1ccc(NC(=O)N2CCC(n3c(=O)[nH]c4c(F)cccc43)CC2)cc1Cl` [Example 182, N-(3-Chloro-4-methoxyphenyl)-4-(4-fluoro-2-oxo-2,3-dihydro-1H-1,3-benzodiazol-1-yl)piperidine-1-carboxamide]: half-maximal inhibition (IC50) required 4790 nM.

Compound `COc1cc(NC(=O)[C@H]2CC[C@@H](n3c(=O)[nH]c4c(Br)cccc43)CC2)cc(OC)c1OC` [Example 193, Cis-4-(4-bromo-2-oxo-2,3-dihydro-1H-1,3-benzodiazol-1-yl)-N-(3,4,5-trimethoxyphenyl)cyclohexane-1-carboxamide] registered an IC50 of 1380 nM.

As to `COc1cc(NC(=O)[C@H]2CC[C@@H](n3c(=O)[nH]c4ncccc43)CC2)ccc1C` [Example 232, Cis-N-(3-methoxy-4-methylphenyl)-4-{2-oxo-1H,2H,3H-imidazo[4,5-b]pyridin-1-yl}cyclohexane-1-carboxamide], the IC50 came out at 109 nM.

On to `O=c1[nH]c2c(Br)cccc2n1[C@H]1CC[C@@H](C(=O)Nc2cncc(Cl)c2)CC1` [Example 188, Cis-4-(4-bromo-2-oxo-2,3-dihydro-1H-1,3-benzodiazol-1-yl)-N-(5-chloropyridin-3-yl)cyclohexane-1-carboxamide], for which the half-maximal inhibitory concentration (IC50) was determined as 4630 nM.

Compound `COc1cc(F)cc(NC(=O)[C@H]2CC[C@@H](n3c(=O)[nH]c4c(Br)cccc43)CC2)c1` [Example 155, (Cis)-4-(4-bromo-2-oxo-2,3-dihydro-1H-1,3-benzodiazol-1-yl)-N-(3-fluoro-5-methoxyphenyl)cyclohexane-1-carboxamide] had an IC50 of 1820 nM.

For `O=C(Nc1ccc(I)cc1)N1CCC(n2c(=O)[nH]c3c(O)cccc32)CC1` [Example 6, 4-(4-Hydroxy-2-oxo-2,3-dihydro-1H-1,3-benzodiazol-1-yl)-N-(4-iodophenyl)piperidine-1-carboxamide], the IC50 is 540 nM.

`Cc1nc2ccc(NC(=O)[C@H]3CC[C@@H](n4c(=O)[nH]c5c(Br)cccc54)CC3)cc2o1` [Example 203, Cis-4-(4-bromo-2-oxo-2,3-dihydro-1H-1,3-benzodiazol-1-yl)-N-(2-methyl-1,3-benzoxazol-6-yl)cyclohexane-1-carboxamide] came in with an IC50 of 6270 nM.

In turn, `O=C(O)c1ccc(-c2cccc3c2[nH]c(=O)n3C2CCN(C(=O)Nc3ccc(Cl)c(Cl)c3)CC2)cc1` [Example 35, 4-(1-{1-[(3,4-Dichlorophenyl)carbamoyl]piperidin-4-yl}-2-oxo-2,3-dihydro-1H-1,3-benzodiazol-4-yl)benzoic acid] showed an IC50 of 1970 nM.

The compound `COc1ccc(NC(=O)N2CCC(n3c(=O)[nH]c4cc(C#N)ccc43)CC2)cc1Cl` [Example 178, N-(3-Chloro-4-methoxyphenyl)-4-(5-cyano-2-oxo-2,3-dihydro-1H-1,3-benzodiazol-1-yl)piperidine-1-carboxamide] returned an IC50 of 6920 nM.

Take `Nc1cccc(NC(=O)[C@H]2CC[C@@H](n3c(=O)[nH]c4c(Br)cccc43)CC2)c1` [Example 195, Cis-N-(3-aminophenyl)-4-(4-bromo-2-oxo-2,3-dihydro-1H-1,3-benzodiazol-1-yl)cyclohexane-1-carboxamide]: inhibition was half-maximal at 3560 nM (IC50).

The compound `COc1cc(NC(=O)N2CCC(n3c(=O)[nH]c4c(Cl)cccc43)CC2)ccc1C` [Example 114, 4-(4-Chloro-2-oxo-2,3-dihydro-1H-1,3-benzodiazol-1-yl)-N-(3-methoxy-4-methylphenyl)piperidine-1-carboxamide] registered a half-maximal inhibitory concentration (IC50) of 690 nM.

On to `COc1ccc(NC(=O)[C@H]2CC[C@@H](n3c(=O)[nH]c4c(Br)cccc43)CC2)cc1C#N` [Example 161, (Cis)-4-(4-bromo-2-oxo-2,3-dihydro-1H-1,3-benzodiazol-1-yl)-N-(3-cyano-4-methoxyphenyl)cyclohexane-1-carboxamide], for which half-maximal inhibition (IC50) was put at 175 nM.

In the case of `COc1ccc(NC(=O)[C@H]2CC[C@@H](n3c(=O)[nH]c4ccc(F)cc43)CC2)cc1F` [Example 218, Cis-4-(6-fluoro-2-oxo-2,3-dihydro-1H-1,3-benzodiazol-1-yl)-N-(3-fluoro-4-methoxyphenyl)cyclohexane-1-carboxamide], 9010 nM corresponded to half-maximal inhibition (IC50).

Compound `COc1cc(NC(=O)[C@H]2CC[C@@H](n3c(=O)[nH]c4c(N5Cc6cn[nH]c6C5)cccc43)CC2)ccc1C` [Example 314, Cis-N-(3-methoxy-4-methylphenyl)-4-(2-oxo-4-{1H,4H,5H,6H-pyrrolo[3,4-c]pyrazol-5-yl}-2,3-dihydro-1H-1,3-benzodiazol-1-yl)cyclohexane-1-carboxamide] gave an IC50 of 56.3 nM.

Regarding `Cc1ccc(NC(=O)[C@H]2CC[C@@H](n3c(=O)[nH]c4c(Br)cccc43)CC2)c(O)c1` [Example 222, Cis-4-(4-bromo-2-oxo-2,3-dihydro-1H-1,3-benzodiazol-1-yl)-N-(2-hydroxy-4-methylphenyl)cyclohexane-1-carboxamide], the IC50 was found to be 350 nM.

Turning to `COc1ncc(NC(=O)[C@H]2CC[C@@H](n3c(=O)[nH]c4c(F)cccc43)CC2)cc1C` [Example 214, Cis-4-(4-fluoro-2-oxo-2,3-dihydro-1H-1,3-benzodiazol-1-yl)-N-(6-methoxy-5-methylpyridin-3-yl)cyclohexane-1-carboxamide], the IC50 came to 556 nM.

For `COc1cc(NC(=O)N2CCC(n3c(=O)[nH]c4c(-c5cncc(N)c5)cccc43)CC2)ccc1C` [Example 97, 4-[4-(5-Aminopyridin-3-yl)-2-oxo-2,3-dihydro-1H-1,3-benzodiazol-1-yl]-N-(3-methoxy-4-methylphenyl)piperidine-1-carboxamide], 1720 nM corresponded to half-maximal inhibition (IC50).

`COc1ccc(-c2cccc3c2[nH]c(=O)n3C2CCN(C(=O)Nc3ccc(Cl)c(OC)c3)CC2)cn1` [Example 105, N-(4-chloro-3-methoxyphenyl)-4-[4-(6-methoxypyridin-3-yl)-2-oxo-2,3-dihydro-1H-1,3-benzodiazol-1-yl]piperidine-1-carboxamide] gave an IC50 of 2940 nM.

`O=c1[nH]c2c(Br)cccc2n1[C@H]1CC[C@@H](C(=O)Nc2cccc3[nH]ccc23)CC1` [Example 145, (Cis)-4-(4-bromo-2-oxo-2,3-dihydro-1H-1,3-benzodiazol-1-yl)-N-(1H-indol-4-yl)cyclohexane-1-carboxamide] registered an IC50 of 1080 nM.

With `COc1ccc(NC(=O)N2CCC(n3c(=O)[nH]c4c(N)cccc43)CC2)cc1Cl` [Example 174, 4-(4-Amino-2-oxo-2,3-dihydro-1H-1,3-benzodiazol-1-yl)-N-(3-chloro-4-methoxyphenyl)piperidine-1-carboxamide], 2540 nM corresponded to half-maximal inhibition (IC50).

`COc1cc(NC(=O)[C@H]2CC[C@@H](n3c(=O)[nH]c4c(C(=O)N5CCNCC5)cccc43)CC2)ccc1C` [Example 261, Cis-N-(3-methoxy-4-methylphenyl)-4-[2-oxo-4-(piperazine-1-carbonyl)-2,3-dihydro-1H-1,3-benzodiazol-1-yl]cyclohexane-1-carboxamide]: the IC50 stood at 68.3 nM.

In turn, `Cc1cc(NC(=O)N2CCC(n3c(=O)[nH]c4c(-c5ccc(CO)nc5)cccc43)CC2)ccc1I` [Example 81, 4-{4-[6-(Hydroxymethyl)pyridin-3-yl]-2-oxo-2,3-dihydro-1H-1,3-benzodiazol-1-yl}-N-(4-iodo-3-methylphenyl)piperidine-1-carboxamide] came in with an IC50 of 408 nM.

`COc1ccc(NC(=O)N2CCC(n3c(=O)[nH]c4c(Br)cccc43)C(O)C2)cc1Cl` (stereo not shown) [Example 177, 4-(4-Bromo-2-oxo-2,3-dihydro-1H-1,3-benzodiazol-1-yl)-N-(3-chloro-4-methoxyphenyl)-3-hydroxypiperidine-1-carboxamide]: inhibition was half-maximal at 5020 nM (IC50).

For `COc1cc(NC(=O)[C@H]2CC[C@@H](n3c(=O)[nH]c4c(C(=O)NCC5COCCN5)cccc43)CC2)ccc1C` (stereo partly drawn) [Example 292, N-[(Morpholin-3-yl)methyl]-2-oxo-1-[cis-4-[(3-methoxy-4-methylphenyl)carbamoyl]cyclohexyl]-2,3-dihydro-1H-1,3-benzodiazole-4-carboxamide], it took 0.37 nM to reach half-maximal inhibition (IC50).

As for `COc1ccc(NC(=O)N2CCC(n3c(=O)[nH]c4cc(F)ccc43)CC2)cc1Cl` [Example 173, N-(3-Chloro-4-methoxyphenyl)-4-(5-fluoro-2-oxo-2,3-dihydro-1H-1,3-benzodiazol-1-yl)piperidine-1-carboxamide], 2420 nM corresponded to half-maximal inhibition (IC50).

For `COc1cc(NC(=O)[C@H]2CC[C@@H](n3c(=O)[nH]c4c(NCC(F)F)cccc43)CC2)ccc1C` [Example 324, Cis-4-{4-[(2,2-difluoroethyl)amino]-2-oxo-2,3-dihydro-1H-1,3-benzodiazol-1-yl}-N-(3-methoxy-4-methylphenyl)cyclohexane-1-carboxamide], the IC50 amounted to 96.9 nM.

`COc1cc(NC(=O)[C@H]2CC[C@@H](n3c(=O)[nH]c4c(N5CCOCC5)cccc43)CC2)ccc1C` [Example 241, Cis-N-(3-methoxy-4-methylphenyl)-4-[4-(morpholin-4-yl)-2-oxo-2,3-dihydro-1H-1,3-benzodiazol-1-yl]cyclohexane-1-carboxamide] displayed an IC50 of 960 nM.

For `Cc1cccc(NC(=O)[C@H]2CC[C@@H](n3c(=O)[nH]c4c(Br)cccc43)CC2)c1C` [Example 167, (Cis)-4-(4-bromo-2-oxo-2,3-dihydro-1H-1,3-benzodiazol-1-yl)-N-(2,3-dimethylphenyl)cyclohexane-1-carboxamide], the IC50 was determined as 3890 nM.

`COc1ccc(NC(=O)N2CCC(n3c(=O)[nH]c4c(C)ccnc43)CC2)cc1Cl` [Example 180, N-(3-Chloro-4-methoxyphenyl)-4-{7-methyl-2-oxo-1H,2H,3H-imidazo[4,5-b]pyridin-3-yl}piperidine-1-carboxamide] registered an IC50 of 8890 nM.

Consider `O=C(Nc1ccc(I)cc1)N1CCCC(n2c(=O)[nH]c3c(Br)cccc32)CC1` (stereo not shown) [Example 34, 4-(4-Bromo-2-oxo-2,3-dihydro-1H-1,3-benzodiazol-1-yl)-N-(4-iodophenyl)azepane-1-carboxamide], for which half-maximal inhibition (IC50) required 502 nM.

Compound `COc1cc(NC(=O)[C@H]2CC[C@@H](n3c(=O)[nH]c4c(Br)cccc43)CC2)ccc1C#N` [Example 159, (Cis)-4-(4-bromo-2-oxo-2,3-dihydro-1H-1,3-benzodiazol-1-yl)-N-(4-cyano-3-methoxyphenyl)cyclohexane-1-carboxamide] had an IC50 of 4940 nM.
